These results are taken from article PMC7765489, “Structural Characterization of Glycerol Kinase from the Thermophilic Fungus Chaetomium thermophilum” (International Journal of Molecular Sciences, 2020).

The target in series [1] is T1, CtGK (Thermochaetoides thermophila, UniProt G0SAG9).
T1 construct: gene CTHT_0042250; residues 67-590 (models start at residue 65), N-terminal His-tag cut by TEV, codon-optimized gene, E. coli BL21(DE3), dimer
T1 sequence (G0SAG9 67-590): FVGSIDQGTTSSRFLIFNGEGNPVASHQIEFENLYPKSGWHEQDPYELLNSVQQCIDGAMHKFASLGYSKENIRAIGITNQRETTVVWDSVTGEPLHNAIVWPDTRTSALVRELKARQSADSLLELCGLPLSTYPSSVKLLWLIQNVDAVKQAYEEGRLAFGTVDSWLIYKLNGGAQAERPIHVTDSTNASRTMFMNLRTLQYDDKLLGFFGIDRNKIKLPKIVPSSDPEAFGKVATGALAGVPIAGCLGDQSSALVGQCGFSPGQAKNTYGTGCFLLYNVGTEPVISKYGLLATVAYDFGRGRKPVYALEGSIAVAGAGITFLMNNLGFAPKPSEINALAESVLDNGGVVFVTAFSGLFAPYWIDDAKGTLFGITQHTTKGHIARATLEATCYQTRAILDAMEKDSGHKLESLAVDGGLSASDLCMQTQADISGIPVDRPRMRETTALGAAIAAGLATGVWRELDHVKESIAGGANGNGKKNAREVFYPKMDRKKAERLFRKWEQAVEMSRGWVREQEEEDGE
In words: thermal shift assay, Sypro Orange. In kind it is binding. The note with it: 50 mM Tris, 200 mM NaCl, pH 8.0.

In series [2] the target is T1, CtGK. In words: X-ray crystal structure (glycerol soak). Type of series: binding. The conditions noted are these: 20-25% glycerol as cryoprotectant; 0.2 M CaCl2, PEG 3350; active site in N-terminal domain.
Series [3] concerns the molecule itself. In words: SEC-MALS; XBridge BEH200 7.8 x 300 column, 50 mM Tris pH 7.8, 200 mM NaCl, 1 mL/min. In general terms: Size exclusion chromatography separates by hydrodynamic size, large species first.
Substrate in the series “purified protein”: Nc1ncnc2c1ncn2[C@@H]1O[C@H](COP(=O)(O)OP(=O)(O)OP(=O)(O)O)[C@@H](O)[C@H]1O
Briefly: purified protein. Type of series: biochemical, Thermochaetoides thermophila. The conditions noted are these: 1 mM glycerol, 5 mM MgCl2, 50 mM KCl, 250 mM sucrose, 20 mM Tris-HCl pH 7.4, 37 °C, substrate inhibition at high ATP.

By Tm is commonly meant the temperature at which the thermal transition is half complete. With `O=P(O)(O)OC[C@H]1OC(O)(COP(=O)(O)O)[C@@H](O)[C@@H]1O` (stereo partly shown) [fructose-1,6-bisphosphate], the Tm entry at CtGK [1] (0.5 mM FBP, with GOL and ATP, site unidentified) was “FBP prevents the protein destabilization by GOL and ATP (Figure S1B)”.

As for `OCC(O)CO` [glycerol], at CtGK [2], the “X-ray crystal structure (glycerol soak)” value is listed as “we were able to solve the enzyme-substrate complex with a clear electron density”. In addition, the Tm at CtGK [1] (5% glycerol, no nucleotide) stood at 53.88 ± 0.48 °C.

As for `Nc1ncnc2c1ncn2[C@@H]1O[C@H](COP(=O)(O)OP(=O)(O)OP(=O)(O)O)[C@@H](O)[C@H]1O` [ATP], the Tm at CtGK [1] (0.5 mM ATP, no glycerol) amounted to 54.5 ± 0.00 °C.

Regarding `Nc1ncnc2c1ncn2[C@@H]1O[C@H](COP(=O)(O)OP(=O)(O)O)[C@@H](O)[C@H]1O` [ADP], on CtGK [1] (0.5 mM ADP, no glycerol), the Tm was 55.0 ± 1.11 °C.

B1: glycerol kinase from Chaetomium thermophilum (enzyme, UniProt G0SAG9 67-590, looked up)
chain: T1 sequence (G0SAG9 67-590)
notes: glycerol kinase, Chaetomium thermophilum, UniProt G0SAG9, residues 67-590; codon-optimised synthetic gene in pET24d with N-terminal His-Tag and TEV site; The crystal models begin at residue 65 (67 for chain B) although the construct is stated as 67-590; also called CtGK; GK; source: E. coli BL21 (DE3), purified (Ni-Sepharose, TEV cleavage, second Ni-Sepharose, gel filtration on Superdex 75); not …
One may read the stoichiometry N as a count of units in the complex or per binding partner. For orientation: Km means the concentration of substrate that gives half-maximal velocity. On to B1, for which the “stoichiometry N” value in series [3] worked out at 2. The Km in the series “purified protein” stood at 52 ± 9 µM.
